Experimental data published in patent publication US7863262B2, “Nitroxyl progenitors in the treatment of heart failure” (Johns Hopkins University, priority 2002, dated 2011).
“Also recorded” adds a separate entry of the source. Ends that are not written are not given here.

Assays:
reperfused myocardium = conditions: anesthetized rabbits; given 5 minutes prior to reperfusion (after ischemia); Ma et al. 1999; cited from earlier work
[1] = Long-term infusion (3-4 hours of perfusion); assay type: in vivo
Method: In particular embodiments the HNO/NO^− donating compound is administered in the form of a pharmaceutical composition. A pharmaceutical composition comprising an effective amount of the HNO/NO^− donating compound as an active ingredient could be easily prepared by standard procedures well known in the art, with pharmaceutically acceptable non-toxic solvents and/or sterile carriers, if necessary. Such preparations are administered orally or in injectable form, or directly to myocardial tissue. In other embodiments the HNO/NO^− donor is administered without a pharmaceutical carrier. In particular embodiments the HNO/NO^− donor is administered by a short-term infusion, such as for 5 to 20 minutes. In other embodiments the HNO/NO^− donor is administered by a long-term infusion, such as from 3-4 hours.

rat renal tissue = conditions: given during ischemia and 5 minutes before reperfusion; Takahira et al. 2001; cited from earlier work
[2] = system: conscious dogs experiencing congestive heart failure (CHF); assay type: in vivo, mongrel dogs; conditions: for cardiac load as measured by Edv (preload) and Ea (afterload): FIG. 1
[3] = system: normal conscious dogs under beta-antagonist therapy with propranolol; assay type: in vivo; conditions: propranolol 2 milligrams/kg in bolus; normal subject
CGRP receptors = experiment: CGRP receptor antagonism with CGRP8-37 in conscious dogs experiencing heart failure; assay type: in vivo, mongrel dogs; conditions: FIG. 6
Method: The diagnostic tests included Ees, DEDV, PRSW, tau, Pes, end diastolic pressure (Ped), end diastolic volume (Ved), and Ea.
To test the relation between the inotropic action of HNO/NO^− and calcitonin gene-related peptide (CGRP) signaling, CGRP receptors in mongrel dogs were antagonized using the selective antagonist CGRP8-37 (400 μg in 30 milliliters (ml) of saline bolus, then 2.6 μg/kg/min for 15 min). Plasma CGRP levels measurements were performed by sampling the blood of the dogs. Blood samples (2.5 ml) were withdrawn from arterial, venous, and coronary sinus catheters. After sampling, catheters were flushed with heparanized saline. Samples were centrifuged at 1600 times gravity (g) for 20 minutes at 4° Celsius (C). Plasma was then separated and stored at −20° C. until analysis. Plasma (0.5 ml) was used to extract CGRP by addition of 0.8 ml of ethanol. The mixture was centrifuged at 1600 g for 20 minutes. After removing the supernatant, the extracted samples were air dried at room temperature overnight and then stored at 4° C. Immediately prior to assay, dried samples were reconstituted with assay buffer following manufacturer's instructions (Peninsula Labs) and assayed for CGRP by radioimmunoassay (RIA). CGRP antiserum, code RAS 6012, was used. The dynamic assay range was 1-128 picograms (pg) per 300 microliters (μL) of sample. […]

Compound: [Na+].[Na+].[O-][N+]([O-])=NO [Angeli's salt, sodium trioxodinitrate]
- myocardial ischemia/reperfusion injury (reperfused myocardium): increased myocardial ischemia/reperfusion injury
- persistence of beneficial effects during long-term infusion [1]: retains its beneficial effects during 3-4 hours of perfusion
- neutrophil infiltration into renal tissue (rat renal tissue): contributed to neutrophil infiltration into the tissue
- cardiac load as measured by Edv (preload) and Ea (afterload) [2]: lowered left ventricular preload; also recorded: reduced the cardiac load

Compound: CC(C)N[N+]([O-])=N[O-].[Na+] [IPA/NO, isopropylamine (IPA)/NO(Na(CH3)2CHNHN(O)NO)]
- cardiac load as measured by Edv (preload) and Ea (afterload) [2]: reduced the cardiac load
- cardiac contractility compared with Angeli's salt (Ees) ([2]; IPA/NO doses one-half to one-quarter those of Angeli's salt, nearly equivalent blood pressure decrease): superior to those caused by the HNO/NO^− donating compound Angeli's salt; also recorded: exerted a stronger positive inotropic effect; also recorded: greater increase in cardiac contractility than Angeli's salt

Compound: CC(C)NCC(O)COc1cccc2ccccc12 (stereo not drawn) [propranolol]
- myocardial performance [3]: reduction in myocardial performance

Compound: calcitonin gene-related peptide8-37 (VTHRLAGLLSRSGGVVKNNFVPTNVGSKAF; ends and bridges not checked; UniProt P06881 90-119, looked up, fragment) [CGRP8-37]
- inotropic effect as measured by Ees (CGRP receptors; CGRP8-37 alone): modest negative inotropic effect
- effect on the positive inotropic effect of Angeli's salt (Ees) (CGRP receptors; CGRP8-37 combined with Angeli's salt versus Angeli's salt alone): effectively prevented the HNO/NO^−-mediated, positive inotropic effect of Angeli's salt
